According to patent publication US20220098203A1 (priority 2018, published 2022):
pIC50: −log10 of the molar value. Where two headings read alike, the source gives them in different places.

Key:
[1] = tested on: HCT116 MTAP+/+; experiment: Inhibition of cellular proliferation (Cell Titer Glo), HCT116 MTAP+/+; assay type: cell-based; settings: Homo sapiens, HCT-116, 96 h, Table 5a, 4 days, read-out: 4 Day Relative Growth Inhibition (MTAP +/+)
Method: (§1) Test compound impact on cancer cell growth was assessed by treating cancer cells with compound for 4 days and then measuring proliferation using an ATP-based cell proliferation readout (Cell Titer Glo, Promega Corporation).
(§2) In a typical assay an isogenic pair of HCT116 human colon carcinoma cell lines which vary only in MTAP deletion status (HCT116 MTAP+/+ and HCT116 MTAP−/−) were plated in 96-well dishes at appropriate cell density. Following 24 hours, cells were then treated with the candidate MAT2A inhibitor. […] Compound was then transferred to a working stock plate in cell culture media by adding 5 μL of compound in DMSO to 495 μL of cell culture media. This working stock was then added to cells via a further 5-fold dilution, by adding 25 μL of working stock to 100 μL of cells in culture media. Following compound addition, cells were incubated at 37° C./5% CO2 for 4 days.
(§3) The plate was then covered with aluminum foil and shaken for 15 minutes to ensure complete mixing and full cell lysis. […] This luminescence measure was converted to a proliferation index by subtracting from each data point the ATP luminescence signal measured from a bank (no cells) well and dividing by the ATP luminescence signal measured in 0.2% DMSO control well adjusted for signal in blank well.

[2] = tested on: HCT116 MTAP-/-; experiment: Inhibition of cellular proliferation (Cell Titer Glo), HCT116 MTAP-/-; assay type: cell-based, human; settings: 4 days, read-out: 4 Day Relative Growth Inhibition (MTAP −/−)
Method: as §1, §2, §3

[3] = molecular target: T1, MAT2A homodimer (Homo sapiens, UniProt P31153); experiment: MAT2A biochemical assay (liberated phosphate, PiColorLock Gold); settings: Table 5a; MAT2A biochemical assay; read-out: Enzyme Inhibition
T1 construct: inferred from the Ni sepharose purification and imidazole elution; made in house; host or cells: SF9 insect cells, recombinant baculovirus (Bac to Bac, pFASTBAC1)
Procedure, shortened: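 Readout is liberated phosphate (PiColorLock Gold), stoichiometric with SAM production, quantified against a potassium phosphate standard curve. Enzyme: recombinant MAT2A homodimer from Sf9, equilibrated 60 min at 25 °C with compound before 60 min reaction with substrate mix containing 500 μM ATP and 400 μM L-methionine.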

[4] = tested on: SAM in HCT116 MTAP-deleted cells; experiment: Cellular assay of target engagement (SAM), LC-MS/MS; assay type: cell-based, human; settings: 72 h, read-out: Cell 72 h SAM Inhibition (MTAP −/−)
Method: Measurement of MAT2A activity in cells was made by direct quantitation of the abundance of the product of its enzymatic activity, SAM. Cancer cells were treated with candidate MAT2A inhibitors for a suitable incubation period, and the cells were then lysed using a reagent which quenched any further enzyme activity. Soluble metabolites including SAM were collected and SAM itself was directly measured from the lysate using quantitative LC-MS/MS.
A typical assay was performed using an HCT116 human colon carcinoma cell line which was genetically engineered to delete the MTAP gene (commercially available from Horizon Discovery). […] Cells were plated in 96-well dishes at appropriate cell density. Following 24 hours, cells were then treated with the candidate MAT2A inhibitor. […] Compound was then transferred to a working stock plate in cell culture media by adding 5 μL of compound in DMSO to 495 μL of cell culture media. This working stock was then added to cells via a further 5-fold dilution, by adding 25 μL of working stock to 100 μL of cells in culture media. Following compound addition, cells were incubated at 37° C./5% CO2 for 72 hrs.
To quantitate SAM levels following compound treatment, cells were gently washed once in ammonium carbonate buffer (75 mM at pH 7.4), placed on dry ice, and lysed with metabolite extraction buffer (80% cold methanol and 20% water (v/v) with acetic acid at 1M final concentration with 200 ng/mL deuterated d3-SAM as internal control). Following centrifugation at 4° C. at 3,200 rpm for 30 minutes, the supernatant was collected and stored at −80° C. until analysis by Liquid Chromatography with tandem Mass Spectrometry (LC-MS/MS). LC-MS/MS analysis was performed using an API6500 Mass Spectrometer (Sciex, Framingham, Mass., USA) operating in positive ion spray mode and equipped with a Waters UPLC Acquity (Waters, Milford, Mass., USA) BEH Amide column.

[5] = Homo sapiens, HCT-116, 96 h, Table 5a
[6] = Table 6, select pairs of compounds
[7] = Homo sapiens, HCT-116, Table 5a

T1 sequence (P31153 whole entry): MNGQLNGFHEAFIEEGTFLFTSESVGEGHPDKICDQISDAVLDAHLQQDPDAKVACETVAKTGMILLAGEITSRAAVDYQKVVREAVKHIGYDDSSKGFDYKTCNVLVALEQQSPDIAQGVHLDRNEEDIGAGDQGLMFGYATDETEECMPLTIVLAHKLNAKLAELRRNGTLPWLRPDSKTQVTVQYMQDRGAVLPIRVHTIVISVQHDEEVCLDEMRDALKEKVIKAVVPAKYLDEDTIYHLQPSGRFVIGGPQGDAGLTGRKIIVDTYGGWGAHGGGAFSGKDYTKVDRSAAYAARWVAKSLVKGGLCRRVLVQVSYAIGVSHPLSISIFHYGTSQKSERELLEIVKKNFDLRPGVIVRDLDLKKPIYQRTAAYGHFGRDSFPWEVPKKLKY

Row | Structure (SMILES) | pIC50 [1] | pIC50 [2, 5] | pIC50 [2, 6] | pIC50 [3] | pIC50 [4, 7] | pIC50 [4, 6]
1 | [2H]C([2H])([2H])Oc1ccc(N2C(=O)N(c3ccc4nn(CC(F)(F)F)cc4c3)Cc3ccc(OCC(F)F)nc32)cc1 [Example 120, 7-(2,2-difluoroethoxy)-1-(4-methoxy-d3-phenyl)-3-(2-(2,2,2-trifluoroethyl)-2H-indazol-5-yl)-3,4-dihydropyrido[2,3-d]pyrimidin-2(1H)-one] | < 6.00 | 6.00 to 7.00 |  | > 7.00 | 6.00 to 7.00 | 
2 | COc1ccc(N2Cc3cnc(NCC(F)(F)F)nc3N(c3ccc(C4CC4)cc3)C2=O)cc1 [Example 242, 1-(4-cyclopropylphenyl)-3-(4-methoxyphenyl)-7-((2,2,2-trifluoroethyl)amino)-3,4-dihydropyrimido[4,5-d]pyrimidin-2(1H)-one] | < 6.00 | 6.00 to 7.00 |  | > 7.00 | 6.00 to 7.00 | 
3 | [2H]C([2H])([2H])Oc1ccc(N2C(=O)N(c3ccc4nn(C(C)C)cc4c3)Cc3ccc(OCC(F)F)nc32)cc1 [Example 118, 7-(2,2-difluoroethoxy)-3-(2-isopropyl-2H-indazol-5-yl)-1-(4-methoxy-d3-phenyl)-3,4-dihydropyrido[2,3-d]pyrimidin-2(1H)-one] | < 6.00 | > 7.00 |  | > 7.00 | 6.00 to 7.00 | 
4 | CCOc1ccc2c(n1)N(c1ccc(OC(F)F)cc1)C(=O)N(c1ccc3nn(C)nc3c1)C2 [Example 110, 1-(4-(difluoromethoxy)phenyl)-7-ethoxy-3-(2-methyl-2H-benzo[d][1,2,3]triazol-5-yl)-3,4-dihydropyrido[2,3-d]pyrimidin-2(1H)-one] | < 6.00 | 6.00 to 7.00 |  | > 7.00 | > 7.00 | 
5 | Cn1cnc2ccc(N3Cc4cnc(NCC(F)(F)F)nc4N(c4ccc(-c5nc[nH]n5)cc4)C3=O)cc21 [Example 218, 1-(4-(1H-1,2,4-triazol-3-yl)phenyl)-3-(1-methyl-1H-benzo[d]imidazol-6-yl)-7-((2,2,2-trifluoroethyl)amino)-3,4-dihydropyrimido[4,5-d]pyrimidin-2(1H)-one] | < 6.00 | 6.00 to 7.00 |  | > 7.00 | 6.00 to 7.00 | 
6 | [2H]C([2H])([2H])Oc1ccc(N2C(=O)N(c3ccc4nn(C)c(OC([2H])([2H])[2H])c4c3)Cc3ccc(OCC(F)F)nc32)cc1 [Example 103, 7-(2,2-difluoroethoxy)-3-(3-(methoxy-d3)-2-methyl-2H-indazol-5-yl)-1-(4-(methoxy-d3)phenyl)-3,4-dihydropyrido[2,3-d]pyrimidin-2(1H)-one] | < 6.00 | > 7.00 |  | > 7.00 | > 7.00 | 
7 | [2H]C([2H])([2H])Oc1ccc(N2C(=O)N(c3ccc4nn(C)cc4c3)Cc3ccc(OCCF)nc32)cc1 [Example 163, 7-(2-fluoroethoxy)-1-(4-methoxy-d3-phenyl)-3-(2-methyl-2H-indazol-5-yl)-3,4-dihydropyrido[2,3-d]pyrimidin-2(1H)-one] | < 6.00 | 6.00 to 7.00 |  | > 7.00 | 6.00 to 7.00 | 
8 | CCOc1ccc2c(n1)N(c1ccc(Cl)cc1)C(=O)N(c1ccc3nn(C)cc3c1)C2 [Example 146, 1-(4-chlorophenyl)-7-ethoxy-3-(2-methyl-2H-indazol-5-yl)-3,4-dihydropyrido[2,3-d]pyrimidin-2(1H)-one] | < 6.00 | 6.00 to 7.00 |  | > 7.00 | > 7.00 | 
9 | CCCc1ccc2c(n1)N(c1ccc(OC)cc1)C(=O)N(c1ccc3nn(C)cc3c1)C2 [Example 294, 1-(4-methoxyphenyl)-3-(2-methyl-2H-indazol-5-yl)-7-propyl-3,4-dihydropyrido[2,3-d]pyrimidin-2(1H)-one] | < 6.00 | > 7.00 |  | > 7.00 | > 7.00 | 
10 | [2H]C([2H])([2H])Oc1ccc(N2Cc3cnc(NCC(F)(F)F)nc3N(c3ccc(-c4nc[nH]n4)cc3)C2=O)cc1 [Example 215, 1-(4-(1H-1,2,4-triazol-3-yl)phenyl)-3-(4-(methoxy-d3)phenyl)-7-((2,2,2-trifluoroethyl)amino)-3,4-dihydropyrimido[4,5-d]pyrimidin-2(1H)-one] | < 6.00 | 6.00 to 7.00 |  | > 7.00 | > 7.00 | 
11 | O=C1N(c2ccc3ncsc3c2)Cc2cnc(NCC(F)(F)F)nc2N1c1ccc(-c2nc[nH]n2)cc1 [Example 219, 1-(4-(1H-1,2,4-triazol-3-yl)phenyl)-3-(benzo[d]thiazol-6-yl)-7-((2,2,2-trifluoroethyl)amino)-3,4-dihydropyrimido[4,5-d]pyrimidin-2(1H)-one] | < 6.00 | 6.00 to 7.00 |  | > 7.00 | > 7.00 | 

Continued, values first:

Row | pIC50 [1] | pIC50 [2, 5] | pIC50 [2, 6] | pIC50 [3] | pIC50 [4, 7] | pIC50 [4, 6] | Structure (SMILES)
12 | > 7.00 | > 7.00 | > 7.00 | > 7.00 | > 7.00 | > 7.00 | Cn1cnc2ccc(N3Cc4ccc(NCC(F)(F)F)nc4N(c4ccc(OC(F)F)cc4)C3=O)cc21 [Example 271]
13 | 6.00 to 7.00 | 6.00 to 7.00 |  | > 7.00 | > 7.00 |  | CCOc1ccc2c(n1)N(c1ccc(OC(F)F)cc1)C(=O)N(c1ccc3nn(C)cc3c1)C2 [Example 131, 1-(4-(difluoromethoxy)phenyl)-7-ethoxy-3-(2-methyl-2H-indazol-5-yl)-3,4-dihydropyrido[2,3-d]pyrimidin-2(1H)-one]
14 | < 6.00 | < 6.00 |  | > 7.00 | < 6.00 |  | Cn1cc2cc(N3Cc4ccc(OCC(F)F)nc4N(c4ccc5[nH]nnc5c4)C3=O)ccc2n1 [Example 179, 1-(1H-benzo[d][1,2,3]triazol-5-yl)-7-(2,2-difluoroethoxy)-3-(2-methyl-2H-indazol-5-yl)-3,4-dihydropyrido[2,3-d]pyrimidin-2(1H)-one]
15 | < 6.00 | 6.00 to 7.00 |  | > 7.00 | 6.00 to 7.00 |  | COc1ccc(N2C(=O)N(c3ccc4[nH]cnc4c3)Cc3cnc(NCC(F)(F)F)nc32)cc1 [Example 234, 3-(1H-benzo[d]imidazol-5-yl)-1-(4-methoxyphenyl)-7-((2,2,2-trifluoroethyl)amino)-3,4-dihydropyrimido[4,5-d]pyrimidin-2(1H)-one]
16 | < 6.00 | 6.00 to 7.00 |  | > 7.00 | 6.00 to 7.00 |  | COc1ccc(N2C(=O)N(c3ccc4nn(C)cc4c3)Cc3c(OC)nc(NCC(F)(F)F)nc32)cc1 [Example 246, 5-methoxy-1-(4-methoxyphenyl)-3-(2-methyl-2H-indazol-5-yl)-7-((2,2,2-trifluoroethyl)amino)-3,4-dihydropyrimido[4,5-d]pyrimidin-2(1H)-one]
17 | 6.00 to 7.00 | > 7.00 |  | > 7.00 | > 7.00 |  | [2H]C([2H])([2H])Oc1ccc(N2C(=O)N(c3ccc4nc(C)n(C)c4c3)Cc3cnc(NCC(F)(F)F)nc32)cc1 [Example 402, 3-(1,2-dimethyl-1H-benzo[d]imidazol-6-yl)-1-(4-(methoxy-d3)phenyl)-7-((2,2,2-trifluoroethyl)amino)-3,4-dihydropyrimido[4,5-d]pyrimidin-2(1H)-one]
18 | 6.00 to 7.00 | 6.00 to 7.00 |  | > 7.00 | > 7.00 |  | CCOc1ccc2c(n1)N(c1ccc(-c3nnc[nH]3)cc1)C(=O)N(c1ccc(OC)cc1)C2 [Example 155, 1-(4-(4H-1,2,4-triazol-3-yl)phenyl)-7-ethoxy-3-(4-methoxyphenyl)-3,4-dihydropyrido[2,3-d]pyrimidin-2(1H)-one]
